{
  "source": "patent US20160326157A1",
  "about": "“MONOBACTAMS AND METHODS OF THEIR SYNTHESIS AND USE” (PRESIDENT AND FELLOWS OF HARVARD COLLEGE, priority 2014, published 2016)",
  "origin": "cited, not measured here",
  "key": {"[1]": {"test_system": "Gram-positive or anaerobic bacteria"}, "[2]": {"conditions": "in vivo"}},
  "data": [
    {"smiles": "C[C@H]1[C@H](NC(=O)/C(=N\\OC(C)(C)C(=O)O)c2csc(N)n2)C(=O)N1S(=O)(=O)O", "note": "[Aztreonam]", "values": [
      {"measurement": "concentration inhibiting most Enterobacteriaceae", "setting": "Enterobacteriaceae", "result": "less than 0.5 g/mL"},
      {"measurement": "activity against Gram-positive or anaerobic bacteria", "setting": "[1]", "result": "inactive"},
      {"measurement": "absorption from the gastrointestinal tract", "setting": "[2]", "result": "not absorbed"},
      {"measurement": "route of excretion", "setting": "[2]", "result": "renally excreted"}
    ]}
  ]
}
